Measurements published in paper PMC6520522, “In vitro and in vivo Metabolism of a Potent Inhibitor of Soluble Epoxide Hydrolase, 1-(1-Propionylpiperidin-4-yl)-3-(4-(trifluoromethoxy)phenyl)urea” (Frontiers in Pharmacology, 2019).

How the values were obtained:
[1] = target: T1, recombinant human sEH (Homo sapiens, UniProt P34913); assay: sEH inhibition potency, CMNPC fluorescent assay; type: biochemical
T1 sequence (P34913 1-555): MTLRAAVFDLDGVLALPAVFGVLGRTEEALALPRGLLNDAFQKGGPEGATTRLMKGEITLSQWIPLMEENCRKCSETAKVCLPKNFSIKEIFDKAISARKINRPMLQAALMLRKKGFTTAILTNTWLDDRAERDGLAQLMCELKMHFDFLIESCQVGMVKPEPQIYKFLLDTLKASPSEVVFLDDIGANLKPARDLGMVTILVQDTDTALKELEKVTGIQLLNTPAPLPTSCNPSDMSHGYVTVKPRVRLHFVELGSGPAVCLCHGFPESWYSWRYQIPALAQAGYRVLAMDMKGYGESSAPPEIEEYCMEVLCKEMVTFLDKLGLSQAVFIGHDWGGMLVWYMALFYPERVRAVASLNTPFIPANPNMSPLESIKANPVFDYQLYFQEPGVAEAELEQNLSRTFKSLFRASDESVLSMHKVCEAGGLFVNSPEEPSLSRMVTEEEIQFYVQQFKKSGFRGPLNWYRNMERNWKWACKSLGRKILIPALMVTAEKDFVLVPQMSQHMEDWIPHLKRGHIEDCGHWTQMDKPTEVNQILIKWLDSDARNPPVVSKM
Experimental: Briefly, recombinant human sEH [1 nM in sodium phosphate buffer (0.1 M, pH = 7.4, 0.1 mg/mL BSA)] was incubated with each analyte (0.1 < [I]final < 10,000 nM) at 30°C for 5 min. Then, the reaction was started with the addition to CMNPC ([S]final = 5 μM). The reaction was monitored kinetically for 10 min at 30°C. The formation of the fluorescent product 6-methoxynaphthaldehyde (λexcitation = 330 nm, λemission = 465 nm, 30°C) was measured every 30 s. IC50 values were determined by regression of the remaining activity in function of the inhibitor concentrations. Assays were run in triplicate and IC50 values are the averages of three replicates.

[2] = Blood pharmacokinetics of TPPU and its metabolites after single oral dose in rats; type: in vivo
Experimental: (§1) Healthy male rats (Sprague Dawley, n = 4) were housed in temperature-controlled housing with ad libitum standard chow and drinking water. Each rat received TPPU (dissolved in 0.5 mL PEG400) at a dose of 10 mg/kg by oral gavage in order to generate significant amounts of metabolites while corresponding to previous efficacious concentration doses. Both blood and urine samples were collected. Blood samples (10 μL) at time points of 0 (before dosing), 0.25, 0.5, 1, 2, 4, 8, 12, 24, 48, and 72 h post dose were collected from the tail vein. Collected blood samples were transferred to Eppendorf tubes containing 90 μL of EDTA solution (0.1% EDTA and 0.1% acetic acid) and were immediately shaken to avoid blood coagulation. The urine and feces samples were passively collected at the time points of 8, 12, 24, 48, and 72 h post dose. TAPU (10 μL) of 1 μM in methanol was added in each blood and urine sample as an internal standard solution. The blood sample extraction was performed with 200 μL ethyl acetate by liquid-liquid extraction. The representative urine samples were subjected to protein precipitation prior to analysis of TPPU and Phase I metabolites. Briefly, urine (10 μL) was treated with 50 μL acetonitrile. After vortex mixing and centrifugation, the supernatant was collected. The feces samples (50–100 mg) were extracted using 600 μL extraction solution (MeOH: EA = 1:1). The mixtures were kept at −20°C overnight to give efficient extraction of TPPU and its metabolites. On day 2, after vortex mixing and centrifugation, the supernatant was collected. The remaining residue was extracted an additional time with 300 μL extraction solution, and the supernatant was combined after centrifugation. The collected supernatants were dried using a speed vacuum concentrator and reconstituted in 50 μL of 100 nM CUDA solution in methanol. In addition, urine (10 μL) was diluted with water (50 μL) and then subjected to analysis of glucuronide or sulfate conjugates.
(§2) LC-MS/MS analysis was conducted on an Agilent SL 1200 series LC system (Agilent, Palo Alto, CA) connected to a 4,000 Qtrap mass spectrometer (Applied Biosystems Instrument Corporation, Foster City, CA) with Turbo V ion source. Liquid chromatography was performed on a Kinetex® C18 column (100 × 2.1 mm, 1.7 μm). Three μL solution was injected onto the column held at 45°C for analysis. Mobile phase A and B were water with 0.1% acetic acid and acetonitrile with 0.1% acetic acid, respectively. The LC flow rate was 300 μL/min.
(§3) The mass spectrometer was operated in both negative and positive modes. Three different scan types were employed to perform mass spectrometry analysis, including product ion scan, precursor ion scan (optimized parameters in Table S4) and MRM scan (optimized parameters in Table S5).

[3] = Urine levels of TPPU and metabolites after single oral dose in rats; type: in vivo; settings: rat, single oral dose 10 mg/kg TPPU; for Cmax: male, Sprague Dawley, urine
Experimental: as §1, §2, §3

[4] = Feces levels of TPPU and metabolites after single oral dose in rats; type: in vivo; settings: rat, single oral dose 10 mg/kg TPPU; for concentration at 8 h: 8h post dose; for concentration at 8 h / concentration at 12 h / concentration at 24 h / concentration at 48 h / concentration at 72 h: n = 3; for concentration at 12 h: 12h post dose; for concentration at 24 h: 24h post dose; for concentration at 48 h: 48h post dose; for concentration at 72 h: 72h post dose
[5] = In vitro metabolism of TPPU in liver S9 fractions; type: in vitro ADME, human, monkey, dog, rat, mouse
Experimental: The in vitro study of TPPU metabolism was conducted following previous methods as described (Watanabe and Hammock, [2001]). Briefly, 1 μL of TPPU (1 mM in DMSO; [TPPU]final = 10 μM) was mixed with 94 μL of diluted liver S9 fractions (final, 0.05 mg protein/mL) from human, monkey, dog, rat, and mouse and incubations were conducted in a 10 mL glass vial. After 5 min preincubation at 37°C, the reaction was initiated by adding 5 μL of NADPH regeneration solution. The NADPH regeneration solution was prepared by mixing 50 μL of NADP^+ (100 mM), 50 μL of G6P (500 mM), 50 μL of G6PDH (100 Unit/mL), and 100 μL of sodium phosphate buffer. Incubation without NADPH regeneration solution was used as control. Reactions were kept for 2 h and terminated by addition of 100 μL of ice-cold methanol containing CUDA (200 nM) as an internal standard. The mixture was followed by vigorous mixing for 2 min and centrifuging at 10,000^*g for 10 min. Each supernatant was transferred to an HPLC vial and kept under 4°C until LC-MS analysis.
as §2

[6] = Urine levels of TPPU and metabolites after single oral dose in rats; type: in vivo; settings: male, Sprague Dawley, rat, single oral dose 10 mg/kg TPPU, n = 3; for concentration at 8 h: 8h post dose; for concentration at 12 h: 12h post dose; for concentration at 24 h: 24h post dose; for concentration at 48 h: 48h post dose; for concentration at 72 h: 72h post dose

Cmax [3] [ng/mL]	time of Cmax in urine [3] [h]	concentration at 8 h ([4]; male, Sprague Dawley, feces) [ng/mL]	concentration at 12 h ([4]; male, Sprague Dawley, feces) [ng/mL]	concentration at 24 h ([4]; male, Sprague Dawley, feces) [ng/mL]	concentration at 48 h ([4]; male, Sprague Dawley, feces) [ng/mL]	concentration at 72 h ([4]; male, Sprague Dawley, feces) [ng/mL]	concentration at 8 h [6] [ng/mL]	concentration at 12 h [6] [ng/mL]	concentration at 24 h [6] [ng/mL]	concentration at 48 h [6] [ng/mL]	concentration at 72 h [6] [ng/mL]	SMILES	further results
12000	12	3.7	5.7	1.1	8.8	4.4	8	1.2	5.6	3.6	2.1	CC(O)C(=O)N1CCC(NC(=O)Nc2ccc(OC(F)(F)F)cc2)CC1 (centres unmarked) [Compound M1, 1-(1-(2-hydroxypropanoyl)piperidin-4-yl)-3-(4-(trifluoromethoxy)phenyl)urea]	IC50 ([1]; CMNPC fluorescent assay, recombinant human sEH 1 nM, 30°C, average of three replicates, read-out: HsEH IC50): 3 ± 0.5 nM; fold more potent than M2 toward human sEH ([1]; ratio of IC50 values, versus M2): ~ 5 fold; half-life ([2]; male, Sprague Dawley, rat, whole blood, po, 10 mg/kg, oral gavage 10 mg/kg, n = 4, read-out: T1/2 (half-life) (converted)): ~20 h; T1/2 (half-life) ([2]; rat blood, oral gavage 10 mg/kg, n = 4, 10 mg/kg): 20 ± 3 h; share of the total TPPU-related exposure in blood ([2]; rat blood, single oral dose of TPPU, over 72 h): ~ 9.6%; formation of metabolite in liver S9 fractions ([5]; with NADPH regeneration system, rat, mouse, dog, monkey, human, 2 h): found in all species tested; formation of metabolite in liver S9 fractions in the absence of a NADPH generation system ([5]; without NADPH, liver S9 fractions (Figure S1: human)): failed to be detected
5700	8	1.8	2.4	1.9	7	1.5	5.7	5.1	1.6	4.6	1.1	CCC(=O)N1CCC(NC(=O)Nc2ccc(OC(F)(F)F)cc2)CC1 [TPPU, 1-(1-propionylpiperidin-4-yl)-3-(4-(trifluoromethoxy)phenyl)urea]	share of the TPPU nucleus in the blood ([2]; rat blood, oral 10 mg/kg TPPU): over 90%; Cmax ([4]; male, Sprague Dawley, feces): 24000 ng/mL; time of Cmax in feces [4]: 12 h; TPPU remaining after incubation with liver S9 fractions ([5]; 2 h of incubation, TPPU 10 μM, 0.05 mg protein/mL): over 90%
